Measured values reported in PMC8037182, “Solvothermal Synthesis of Multiple Dihydropyrimidinones at a Time as Inhibitors of Eg5” (Molecules, 2021).

Columns and labels:
L929 cell line = experiment: Cytotoxicity MTS assay, L929 cell line; type: cell-based; settings: for OD490 values, Mean / OD490 values, Well 1 / OD490 values, Well 2 / OD490 values, Well 3: L929 cell line, first assay; for IC50: MTS assay, 24 h exposure, ordinary fibroblast, not cancer cells
In short: (§1)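 Cells were seeded at 1000 per well, allowed 24 h, then exposed to compounds at final concentrations of 0.5 to 100 µM for 24 h, with 0.025% DMSO as blank. MTS reagent was added for 2 h at 37 °C and absorbance read at 490 nm. IC50 came from non-linear regression of viability against concentration.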

T24 cell line = experiment: Cytotoxicity MTS assay, T24 cell line; type: cell-based; settings: for IC50: MTS assay, 24 h exposure; for OD490 Mean / OD490 Well 1 / OD490 Well 2 / OD490 Well 3: T24 cell line, first assay;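 as to OD490 Mean: blank control wells received 0.025% DMSO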;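 as to OD490 Well 1: blank control wells received 0.025% DMSO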;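 as to OD490 Well 2: blank control wells received 0.025% DMSO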;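 as to OD490 Well 3: blank control wells received 0.025% DMSO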
In short: as §1

Compound: CCOC(=O)c1[nH]c(C2NC(=O)NC(C)=C2C(=O)Nc2ccccc2OC)c(C(=O)OC)c1C (stereo not shown) [D3]
- OD490 values, Mean (L929 cell line; 0.5μM): 1.3020
- OD490 values, Well 1 (L929 cell line; 0.5μM): 1.4715
- OD490 values, Well 2 (L929 cell line; 0.5μM): 1.2756
- OD490 values, Well 3 (L929 cell line; 0.5μM): 1.1589
- OD490 values, Mean (L929 cell line; 1μM): 1.3230
- OD490 values, Well 1 (L929 cell line; 1μM): 1.4997
- OD490 values, Well 2 (L929 cell line; 1μM): 1.2316
- OD490 values, Well 3 (L929 cell line; 1μM): 1.2376
- OD490 values, Mean (L929 cell line; 10μM): 1.3760
- OD490 values, Well 1 (L929 cell line; 10μM): 1.4568
- OD490 values, Well 2 (L929 cell line; 10μM): 1.4534
- OD490 values, Well 3 (L929 cell line; 10μM): 1.2179
- OD490 values, Mean (L929 cell line; 25μM): 1.2499
- OD490 values, Well 1 (L929 cell line; 25μM): 1.2312
- OD490 values, Well 2 (L929 cell line; 25μM): 1.2473
- OD490 values, Well 3 (L929 cell line; 25μM): 1.2712
- OD490 values, Mean (L929 cell line; 50μM): 1.1939
- OD490 values, Well 1 (L929 cell line; 50μM): 1.2135
- OD490 values, Well 2 (L929 cell line; 50μM): 1.2454
- OD490 values, Well 3 (L929 cell line; 50μM): 1.1229
- OD490 values, Mean (L929 cell line; 100μM): 1.1051
- OD490 values, Well 1 (L929 cell line; 100μM): 1.0930
- OD490 values, Well 2 (L929 cell line; 100μM): 1.2053
- OD490 values, Well 3 (L929 cell line; 100μM): 1.0171
- IC50 (L929 cell line): > 150 µM
- IC50 (T24 cell line): > 150 µM
- OD490 Mean (T24 cell line; 0.5μM): 1.8317
- OD490 Well 1 (T24 cell line; 0.5μM): 1.9267
- OD490 Well 2 (T24 cell line; 0.5μM): 1.7284
- OD490 Well 3 (T24 cell line; 0.5μM): 1.8399
- OD490 Mean (T24 cell line; 1μM): 1.4215
- OD490 Well 1 (T24 cell line; 1μM): 1.4512
- OD490 Well 2 (T24 cell line; 1μM): 1.4430
- OD490 Well 3 (T24 cell line; 1μM): 1.3702
- OD490 Mean (T24 cell line; 10μM): 1.5897
- OD490 Well 1 (T24 cell line; 10μM): 1.3957
- OD490 Well 2 (T24 cell line; 10μM): 1.6776
- OD490 Well 3 (T24 cell line; 10μM): 1.6957
- OD490 Mean (T24 cell line; 25μM): 1.4932
- OD490 Well 1 (T24 cell line; 25μM): 1.4267
- OD490 Well 2 (T24 cell line; 25μM): 1.6194
- OD490 Well 3 (T24 cell line; 25μM): 1.4336
- OD490 Mean (T24 cell line; 50μM): 1.4228
- OD490 Well 1 (T24 cell line; 50μM): 1.3624
- OD490 Well 2 (T24 cell line; 50μM): 1.4440
- OD490 Well 3 (T24 cell line; 50μM): 1.4620
- OD490 Mean (T24 cell line; 100μM): 1.3750
- OD490 Well 1 (T24 cell line; 100μM): 1.3903
- OD490 Well 2 (T24 cell line; 100μM): 1.4568
- OD490 Well 3 (T24 cell line; 100μM): 1.2780

Compound: CCOC(=O)c1c(C2NC(=O)NC(C)=C2C(=O)Nc2ccccc2)[nH]c(C(=O)OC)c1C (stereo not shown) [D10]
- OD490 values, Mean (L929 cell line; 0.5μM): 1.1783
- OD490 values, Well 1 (L929 cell line; 0.5μM): 1.1608
- OD490 values, Well 2 (L929 cell line; 0.5μM): 1.2289
- OD490 values, Well 3 (L929 cell line; 0.5μM): 1.1452
- OD490 values, Mean (L929 cell line; 1μM): 1.1453
- OD490 values, Well 1 (L929 cell line; 1μM): 1.2474
- OD490 values, Well 2 (L929 cell line; 1μM): 1.0902
- OD490 values, Well 3 (L929 cell line; 1μM): 1.0983
- OD490 values, Mean (L929 cell line; 10μM): 1.1621
- OD490 values, Well 1 (L929 cell line; 10μM): 1.1874
- OD490 values, Well 2 (L929 cell line; 10μM): 1.1922
- OD490 values, Well 3 (L929 cell line; 10μM): 1.1066
- OD490 values, Mean (L929 cell line; 25μM): 1.1923
- OD490 values, Well 1 (L929 cell line; 25μM): 1.1856
- OD490 values, Well 2 (L929 cell line; 25μM): 1.2091
- OD490 values, Well 3 (L929 cell line; 25μM): 1.1822
- OD490 values, Mean (L929 cell line; 50μM): 1.0704
- OD490 values, Well 1 (L929 cell line; 50μM): 0.9680
- OD490 values, Well 2 (L929 cell line; 50μM): 1.0467
- OD490 values, Well 3 (L929 cell line; 50μM): 1.1965
- OD490 values, Mean (L929 cell line; 100μM): 0.9201
- OD490 values, Well 1 (L929 cell line; 100μM): 0.8725
- OD490 values, Well 2 (L929 cell line; 100μM): 0.9125
- OD490 values, Well 3 (L929 cell line; 100μM): 0.9752
- IC50 (L929 cell line): > 150 µM
- IC50 (T24 cell line): > 150 µM
- OD490 Mean (T24 cell line; 0.5μM): 1.3759
- OD490 Well 1 (T24 cell line; 0.5μM): 1.3871
- OD490 Well 2 (T24 cell line; 0.5μM): 1.3651
- OD490 Well 3 (T24 cell line; 0.5μM): 1.3756
- OD490 Mean (T24 cell line; 1μM): 1.3764
- OD490 Well 1 (T24 cell line; 1μM): 1.2835
- OD490 Well 2 (T24 cell line; 1μM): 1.4515
- OD490 Well 3 (T24 cell line; 1μM): 1.3943
- OD490 Mean (T24 cell line; 10μM): 1.4610
- OD490 Well 1 (T24 cell line; 10μM): 1.3272
- OD490 Well 2 (T24 cell line; 10μM): 1.6117
- OD490 Well 3 (T24 cell line; 10μM): 1.4442
- OD490 Mean (T24 cell line; 25μM): 1.4209
- OD490 Well 1 (T24 cell line; 25μM): 1.3594
- OD490 Well 2 (T24 cell line; 25μM): 1.6346
- OD490 Well 3 (T24 cell line; 25μM): 1.2686
- OD490 Mean (T24 cell line; 50μM): 1.2169
- OD490 Well 1 (T24 cell line; 50μM): 1.1849
- OD490 Well 2 (T24 cell line; 50μM): 1.3216
- OD490 Well 3 (T24 cell line; 50μM): 1.1441
- OD490 Mean (T24 cell line; 100μM): 1.1356
- OD490 Well 1 (T24 cell line; 100μM): 1.2013
- OD490 Well 2 (T24 cell line; 100μM): 1.0672
- OD490 Well 3 (T24 cell line; 100μM): 1.1383
